# Several values for one entry are separate records, joined by “and”; a condition that tells them apart may be missing. Identical values can stand only once.
# Conditions: in H2O; cited from earlier work
row,Structure (SMILES),SOLUBIL. IN H2O
1,"Clc1cccc(Cl)c1Cl [1,2,3-Trichloro benzene]",1 PPM
2,"Clc1ccccc1Cl [1,2-Dichlorobenzene]",10000 PPM
3,"Cc1cc(C)cc(C)c1 [1,3,5-Trimethyl benzene]",2000 PPM
4,"Clc1cccc(Cl)c1 [1,3-Dichlorobenzene]",11000 PPM and 10000 PPM
5,"Cc1ccc(O)c(C)c1 [2,4-Dimethylphenol]",5 PPM
6,Oc1ccccc1Cl [2-Chlorophenol],5 PPM
7,Cc1ccccc1O [2-Methylphenol],775000 PPM
8,Nc1ccccc1[N+](=O)[O-] [2-Nitroaniline],5 PPM
9,Cc1cc(O)ccc1Cl [4-Chloro-3-methyl phenol],1 PPM
10,Nc1ccc(Cl)cc1 [4-Chloroaniline],5 PPM
11,Cc1ccc(Cl)cc1 [4-Chlorotoluene],5 PPM
12,CC(=O)c1ccccc1 [Acetophenone],5500 PPM
13,C=CC#N [Acrylonitrile],73000 PPM
14,C=CCCl [Allyl chloride],3600 PPM
15,Nc1ccccc1 [Aniline],32500 PPM
16,OCc1ccccc1 [Benzyl alcohol],80000 PPM
17,Brc1ccccc1 [Bromobenzene],400 PPM

row,Structure (SMILES),SOLUBIL. IN H2O
1,c1ccc2c(c1)oc1ccccc12 [Dibenzofuran],1 PPM
2,BrCBr [Dibromomethane],11500 PPM
3,CCOCC [Diethyl ether],60400 PPM
4,C=C(C)C(=O)OC [Methyl methacrylate],16000 PPM
5,c1ccc2ccccc2c1 [Naphthalene],3400 PPM
6,Clc1cc(Cl)c(Cl)c(Cl)c1Cl [Pentachlorobenzene],1 PPM
7,ClCCOCCCl [bis(2-Chloroethyl) ether],1 PPM
8,CC(C)c1ccccc1 [iso-Propylbenzene],5000 PPM
9,CCCCc1ccccc1 [n-Butylbenzene],5000 PPM
10,CCCN(CCC)N=O [n-Nitroso-di-n-propylamine],5 PPM
11,O=NN1CCCCC1 [n-Nitroso-piperidine],1000000 PPM
12,O=NN1CCOCC1 [n-Nitrosomorpholine],1000000 PPM
13,CCCc1ccccc1 [n-Propylbenzene],60 PPM
14,Cc1ccccc1N [o-Toluidine],17000 PPM
15,Cc1ccc(C(C)C)cc1 [para-iso-Propyl toluene],1 PPM
16,CCC(C)c1ccccc1 (stereo not shown) [sec-butylbenzene],320 PPM
17,CC(C)(C)c1ccccc1 [tert-Butlybenzene],290 PPM

# Same assay, conditions: water; cited from earlier work
row,Structure (SMILES),SOLUBIL. IN H2O [PPM]
1,"Cc1ccc(C)c(C)c1 [1,2,4-Trimethyl benzene]",1
2,Cc1ccccn1 [2-Picoline],1000000

# Conditions: 1 gram cod liver oil, 200 ppb spike recovery only
# Description: The cryotrap is placed in liquid nitrogen which is replaced as needed throughout the operation. The sample valve is placed in the load position. Samples are placed in the sample chamber and the chamber attached to the apparatus. The coolant/heat valve is adjusted so that the condenser fluid is circulating and at the desired temperature. The vacuum pump is turned on and the vacuum pump valve and sample chamber valve are opened to begin distillation/purging. After five minutes the pressure at the vacuum pump, as measured by a Pirani gauge reads about 0.1 Torr and a Pirani gauge reads less than about 250 Torr at the sample chamber. Distillation continues for another five minutes to complete distillation at which time the sample chamber pressure should be approximately 10 Torr.
# Once distillation is complete, the sampling valve is adjusted to the injection position. The liquid nitrogen is removed from the cryotrap and replaced with a beaker of hot (about 90° C.) tap water. The GC/MS then begins to collect data. At this stage, the sample chamber may be removed and the apparatus prepared for another sample. If multiple samples are connected, a new sample chamber may be connected in sequence.
row,Structure (SMILES),Oil Recovery (200 ppb spike only) [%]
1,CCC(C)=O [2-Butanone],128 ± 21.5

# — patent US5411707A, “Vacuum extractor incorporating a condenser column” (priority 1994, dated 1995)
